From US8026342B2, “Compositions and methods for binding sphingosine-1-phosphate” (Lpath, Inc., priority 2006, dated 2011)

B1: LT1002: murine anti-S1P monoclonal antibody, IgG1 kappa, from hybridoma clone 306D326.26 (antibody, listed as Mus sp., V domains shown)
VH: QAHLQQSDAELVKPGASVKISCKVSGFIFIDHTIHWMKQRPEQGLEWIGCISPRHDITKYNEMFRGKATLTADKSSTTAYIQVNSLTFEDSAVYFCARGGFYGSTIWFDFWGQGTTLTVS
VL: ETTVTQSPASLSMAIGEKVTIRCITTTDIDDDMNWFQQKPGEPPNLLISEGNILRPGVPSRFSSSGYGTDFLFTIENMLSEDVADYYCLQSDNLPFTFGSGTKLEIK

Key:
[1] = test system: COLO205 tumor; assay: SC COLO205 colorectal tumor xenograft; type: in vivo, nude NCr (nu/nu) mice
Method: Nude mice were implanted sc near the right flank with one fragment per mouse of COLO 205 tumor from an in vivo passage. All treatments were initiated the day when 60 mice in each experiment established tumors ranging in size from approximately 100 to 200 mm3. […] Avastin was administered iv at a dosage of 40 mg/kg/dose on a q7d schedule, injected in a volume of 0.1 mL/20 g body weight. Paclitaxel (positive control), was administered iv at a dosage of 15 mg/kg/dose on a q1d×5 schedule, injected in a volume of 0.1 mL/10 g body weight.
Animals were observed daily for mortality. Tumor dimensions and body weights were collected twice weekly starting with the first day of treatment and including the day of study termination. When the median tumor in the vehicle-treated control group in each study reached approximately 4,000 mg, the study was terminated. Tumors from each animal were harvested, wet weights were recorded, tumors were processed for determination of microvascular densities (MVD) by CD-31 staining. Tumor weights (mg) were calculated using the equation for an ellipsoid sphere (l×w^2)/2=mm^3, where l and w refer to the larger and smaller dimensions collected at each measurement and assuming unit density (1 mm^3=1 mg).

[2] = Thermochallenge stability of antibody variants (TM); type: physicochemical
Method: iii. Stability. The humanized variants were tested for stability after challenge at high temperature. The approximate midpoints of the thermal unfolding transitions (TM) were determined for every humanized variant by subjecting the supernatants to temperatures ranging from 60 to 74° C. […] The binding properties of each variant were determined before and after thermochallenge.

[3] = test system: fibroblasts (Swiss 3T3, murine cardiac, WI-38); assay: S1P-stimulated fibroblast proliferation, migration, collagen expression and myofibroblast differentiation; type: cell-based; conditions: 1 μg/mL antibody
Method: See Example 7, below, for experimental details. […] In these experiments, fibroblasts were serum-starved and then treated with 0, 0.1, 0.5, or 1 μM S1P+/−1 μg/mL SPHINGOMAB for 12-24 hr. […] SPHINGOMAB neutralized each of these S1P effects. SPHINGOMAB reduced perivascular fibrosis in vivo in a murine model of a permanent myocardial infarction (E).
S1P makes profound contributions to wound healing by activating fibroblast migration, proliferation and collagen production; SPHINGOMAB neutralizes these effects. Several studies using multiple types of fibroblasts confirm S1P's ability to promote wound healing: 1) S1P increased Swiss-3T3 fibroblast proliferation as measured by ^3H-thymidine incorporation using standard methods (FIG. 7A); 2) S1P promoted the migration of cardiac fibroblasts in a standard scratch wound healing assay. […] In each of these assays, SPHINGOMAB neutralized S1P's. It is anticipated that ocular fibroblasts would respond similarly to S1P and SPHINGOMAB.

[4] = LT1009 25 mg/kg ip q3d, increased to 75 mg/kg on Day 21
[5] = LT1009 50 mg/kg ip q3d, Avastin 40 mg/kg iv q7d, Paclitaxel 15 mg/kg iv q1d×5

Molecule	% Reduction compared to Vehicle-Treated Mice [1, 4] [%]	Final Tumor Weights [1, 4] [mg]	% Reduction compared to Vehicle-Treated Mice [1, 5] [%]	Final Tumor Weights [1, 5] [mg]	TM (approximate midpoint of thermal unfolding transition) [2] [°C]	effect on S1P-stimulated fibroblast proliferation, migration, collagen expression, myofibroblast differentiation [3]
LT1009: humanized anti-S1P IgG1/kappa mAb with Cys to Ala in HCDR2, light chain with 5 backmutations; SEQ ID NO: 31/32	20	2465.60	32	2071.17	–	–
B1	–	–	–	–	65	neutralized
